In patent publication US20230399320A1, “NOVEL CAPSID ASSEMBLY INHIBITOR” (Pelemed Co., Ltd., priority 2020, published 2023):
Read-outs that look alike come from different tables or passages of the source.

Tests used:
[1] = target: T1, Cp149 (truncated form of a HBV core protein) (Hepatitis B virus genotype D subtype ayw, UniProt P03146); assay: Protein based assay: immunoblot analysis of in vitro HBV capsid assembly; type: biochemical; settings: read-out: Protein based assay (% inhibition, 10 μM)
T1 construct: Cp149 (amino acids 1-149) is a truncated form of a HBV core protein; histidine tag (cleaved yes); made in house; host or cells: Escherichia coli BL21(DE3)
T1 sequence (P03146 1-149): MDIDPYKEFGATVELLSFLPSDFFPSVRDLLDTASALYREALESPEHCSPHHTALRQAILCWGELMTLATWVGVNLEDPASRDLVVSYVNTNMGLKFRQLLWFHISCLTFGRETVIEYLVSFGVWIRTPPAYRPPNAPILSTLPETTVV
Experimental: Cp149 (amino acids 1-149) is a truncated form of a HBV core protein. It was expressed in Escherichia coli, and the expressed protein was purified. The recombinant Cp149 was expressed in E. coli BL21(DE3) cells cultured in LB medium at 37° C. When the culture reached an OD600 of 0.7 to 0.8, expression of the culture was induced with 0.5 mM isopropyl-β-d-thiogalactopyranoside and the culture was cooled to 16° C. After 16 hours, the cells were harvested, flash-frozen in liquid nitrogen, and stored at −80° C. To purify Cp149, thawed cells were resuspended in lysis buffer (20 mM Tris-HCl pH 9.0, 200 mM NaCl, 10 mM imidazole, 10 μg per mL DNaseI, 1 mM phenylmethylsulfonyl fluoride), and treated with ultrasonic waves. The supernatant was loaded onto Ni-NTA affinity resin. Proteins were eluted using a 20 mM to 500 mM imidazole gradient dissolved in lysis buffer. After removing the histidine tag with thrombin, the protein was further purified by HiTrap Q anion exchange chromatography (17115401, GE Healthcare).
To determine the effect on in vitro Cp149 assembly, compounds of the present invention were added to the Cp149-containing suspension. The final concentration of Cp149 was 1 mg per mL, and the compounds of the present invention were added at concentrations of 0.1 to 10 μM. The suspension was mixed with reaction buffer (150 mM HEPES, pH 7.5, 15 mM NaCl) added in a 2:1 ratio. In vitro assembly was performed at 37° C. for 1 hour, and HBV capsid was detected by immunoblot analysis using an anti-HBV core antibody (1:2000, B0586, Dako).

[2] = system: HBV DNA; assay: Quantitative PCR for measuring HBV DNA in cells (HBV DNA quantification); type: cell-based
Experimental: After treating cells with the indicated compounds, HBV DNA secreted into the medium and intracellular HBV DNA were extracted, purified, and quantified by quantitative PCR. To isolate the secreted HBV DNA, the culture medium was recovered and centrifuged at 15,000×g to remove debris. The medium was diluted 1:1 with phosphate-buffered saline (PBS), and 1 M NaOH solution was added to a final concentration of 0.1 M. The mixture was incubated at 37° C. for 1 hour. The protein was denatured by adding 2M Tris-HCl solution (pH 7.5) to a final concentration of 0.2 M and incubating at 98° C. for 5 minutes. The protein precipitation was removed by centrifugation at 15,000×g, and the supernatant was subjected to PCR with HBV DNA primer and probe sets:
Forward: 5′-[…]-3′, Reverse: 5′-[…]-3′, Probe: 5′-[…]-3′.

[3] = Hepatitis B virus; read-out: HBV DNA quantification (IC50 μM)
[4] = Hepatitis B virus, read-out: HBV DNA quantification (IC50 μM)

Structure (SMILES) | inhibition at 10 µM [1] [%] | IC50 [2, 3] [µM] | IC50 [2, 4] [µM]
COc1ncccc1C(=O)NCCNc1cc(Nc2ccc(I)cc2)nc([S+](C)[O-])n1 (stereo not drawn) [Compound 9e, N-(2-(6-(4-iodophenylamino)-2-(methylsulfinyl)pyrimidin-4-ylamino)ethyl)-2-methoxynicotinamide] | 37 | > 10 | –
COc1ncccc1C(=O)NCCNc1cc(Nc2ccc(F)c(F)c2)nc([S+](C)[O-])n1 (stereo not drawn) [Compound 9f, N-(2-(6-(3,4-difluorophenylamino)-2-(methylsulfinyl)pyrimidin-4-ylamino)ethyl)-2-methoxynicotinamide] | 38 | – | > 10
COc1ncccc1C(=O)NCCNc1cc(Nc2ccc(F)c(F)c2)nc(S(C)(=O)=O)n1 [Compound 9g, N-(2-(6-(3,4-difluorophenylamino)-2-(methylsulfonyl)pyrimidin-4-ylamino)ethyl)-2-methoxynicotinamide] | 59 | – | > 10
COc1ncccc1C(=O)NCCNc1cc(Nc2ccc(F)cc2Cl)nc([S+](C)[O-])n1 (stereo not drawn) [Compound 9h, N-(2-(6-(2-chloro-4-fluorophenylamino)-2-(methylsulfinyl)pyrimidin-4-ylamino)ethyl)-2-methoxynicotinamide] | 43 | – | > 10
COc1ncccc1C(=O)NCCNc1cc(Nc2ccc(F)cc2Cl)nc(S(C)(=O)=O)n1 [Compound 9i, N-(2-(6-(2-chloro-4-fluorophenylamino)-2-(methylsulfonyl)pyrimidin-4-ylamino)ethyl)-2-methoxynicotinamide] | 43 | – | > 10
CSc1nc(Cl)cc(N(Cc2ccc(F)cc2)c2ccc(N3CCOCC3)cc2)n1 [Compound 10a, 6-chloro-N-(4-fluorobenzyl)-2-(methylthio)-N-(4-morpholinophenyl)pyrimidin-4-amine] | 58 | – | > 10
CSc1nc(Cl)cc(N(CCc2ccc(F)cc2)c2ccc(N3CCOCC3)cc2)n1 [Compound 10b, 6-chloro-N-(4-fluorophenethyl)-2-(methylthio)-N-(4-morpholinophenyl)pyrimidin-4-amine] | 76 | – | > 10
CSc1nc(N)cc(N(Cc2ccc(F)cc2)c2ccc(N3CCOCC3)cc2)n1 [Compound 11a, N^4-(4-fluorobenzyl)-2-(methylthio)-N^4-(4-morpholinophenyl)pyrimidine-4,6-diamine] | 71 | > 10 | –
CSc1nc(N)cc(N(CCc2ccc(F)cc2)c2ccc(N3CCOCC3)cc2)n1 [Compound 11b, N^4-(4-fluorophenethyl)-2-(methylthio)-N^4-(4-morpholinophenyl)pyrimidine-4,6-diamine] | 74 | > 10 | –
COc1ncccc1C(=O)N1CCN(c2cc(Nc3ccc(N4CCOCC4)cc3)nc(SC)n2)CC1 [Compound 13, (2-methoxypyridin-3-yl)(4-(2-(methylthio)-6-(4-morpholinophenylamino)pyrimidin-4-yl)piperazin-1-yl)methanone] | 31 | > 10 | –
COc1ncccc1C(=O)N1CCN(c2cc(Nc3ccc(N4CCOCC4)cc3)nc([S+](C)[O-])n2)CC1 (stereo not drawn) [Compound 14, (2-methoxypyridin-3-yl)(4-(2-(methylsulfinyl)-6-(4-morpholinophenylamino)pyrimidin-4-yl)piperazin-1-yl)methanone] | 33 | > 10 | –
CS(=O)(=O)c1nc(Cl)cc(Nc2ccc(F)cc2F)n1 [Compound 16a, 6-chloro-N-(2,4-difluorophenyl)-2-(methylsulfonyl)pyrimidin-4-amine] | 85 | – | > 10
CS(=O)(=O)c1nc(Cl)cc(Nc2cc(F)c(F)c(F)c2)n1 [Compound 16b, 6-chloro-2-(methylsulfonyl)-N-(3,4,5-trifluorophenyl)pyrimidin-4-amine] | 82 | – | 0.473
CS(=O)(=O)c1nc(Nc2ccc(F)cc2)cc(Nc2ccc(F)cc2)n1 [Compound 18a, N^4,N^6-bis(4-fluorophenyl)-2-(methylsulfonyl)pyrimidine-4,6-diamine] | 49 | 6.4 | –
CS(=O)(=O)c1nc(Nc2cc(F)c(F)c(F)c2)cc(Nc2cc(F)c(F)c(F)c2)n1 [Compound 18b, 2-(methylsulfonyl)-N^4,N^6-bis(3,4,5-trifluorophenyl)pyrimidine-4,6-diamine] | 69 | 1.02 | –
CS(=O)(=O)c1nc(Nc2ccc(F)c(Cl)c2)cc(Nc2ccc(F)c(Cl)c2)n1 [Compound 18c, N^4,N^6-bis(3-chloro-4-fluorophenyl)-2-(methylsulfonyl)pyrimidine-4,6-diamine] | 57 | – | 0.587
CC(C)(C)OC(=O)N1CCN(c2cc(Nc3ccc(F)cc3)nc(S(C)(=O)=O)n2)CC1 [Compound 22a, tert-butyl 4-(6-(4-fluorophenylamino)-2-(methylsulfonyl)pyrimidin-4-yl)piperazine-1-carboxylate] | 68 | – | 0.831
CC(C)(C)OC(=O)N1CCN(c2cc(NCc3ccc(F)cc3)nc(S(C)(=O)=O)n2)CC1 [Compound 22b, tert-butyl 4-(6-(4-fluorobenzylamino)-2-(methylsulfonyl)pyrimidin-4-yl)piperazine-1-carboxylate] | 40 | – | 0.549
CC(C)(C)OC(=O)N1CCN(c2cc(Nc3ccc(Cl)cc3)nc(S(C)(=O)=O)n2)CC1 [Compound 22c, tert-butyl 4-(6-(4-chlorophenylamino)-2-(methylsulfonyl)pyrimidin-4-yl)piperazine-1-carboxylate] | 68 | – | 0.577
CC(C)(C)OC(=O)N1CCN(c2cc(NCc3ccc(Cl)cc3)nc(S(C)(=O)=O)n2)CC1 [Compound 22d, tert-butyl 4-(6-(4-chlorobenzylamino)-2-(methylsulfonyl)pyrimidin-4-yl)piperazine-1-carboxylate] | 55 | – | 5.08
CC(C)(C)OC(=O)N1CCN(c2cc(Nc3ccc(Br)cc3)nc(S(C)(=O)=O)n2)CC1 [Compound 22e, tert-butyl 4-(6-(4-bromophenylamino)-2-(methylsulfonyl)pyrimidin-4-yl)piperazine-1-carboxylate] | 67 | – | 0.652
CC(C)(C)OC(=O)N1CCN(c2cc(Nc3ccc(I)cc3)nc(S(C)(=O)=O)n2)CC1 [Compound 22f, tert-butyl 4-(6-(4-iodophenylamino)-2-(methylsulfonyl)pyrimidin-4-yl)piperazine-1-carboxylate] | 66 | – | 1.1
CC(C)(C)OC(=O)N1CCN(c2cc(Nc3ccc(F)c(F)c3)nc(S(C)(=O)=O)n2)CC1 [Compound 22g, tert-butyl 4-(6-(3,4-difluorophenylamino)-2-(methylsulfonyl)pyrimidin-4-yl)piperazine-1-carboxylate] | 84 | – | 0.658
CC(C)(C)OC(=O)N1CCN(c2cc(Nc3cc(F)c(F)c(F)c3)nc(S(C)(=O)=O)n2)CC1 [Compound 22h, tert-butyl 4-(2-(methylsulfonyl)-6-(3,4,5-trifluorophenylamino)pyrimidin-4-yl)piperazine-1-carboxylate] | 96 | – | 0.577
